What was measured:
[1] = tested on: human cadaver skin samples (stratum corneum); type: in vitro ADME
Procedure: Modulated sonic energy and chemical enhancers were tested for their ability to control transdermal flux on human cadaver skin samples. In these tests, the epidermal membrane had been separated from the human cadaver whole skin by the heat-separation method of Example 1. The epidermal membrane was cut and placed between two halves of the permeation cell with the stratum corneum facing either the upper (donor) compartment or lower (receiver) compartment. Modified Franz cells were used to hold the epidermis, as shown in FIG. 2 of U.S. Pat. No. 5,445,611. Each Franz cell consists of an upper chamber and a lower chamber held together with one or more clamps. The lower chamber has a sampling port through which materials can be added or removed. A sample of stratum corneum is held between the upper and lower chambers when they are clamped together. The upper chamber of each Franz cell is modified to allow an ultrasound transducer to be positioned within 1 cm of the stratum corneum membrane. Methylene blue solution was used as an indicator molecule to assess the permeation of the stratum corneum. A visual record of the process and results of each experiment was obtained in a time stamped magnetic tape format with a video camera and video cassette recorder (not shown). Additionally, samples were withdrawn for measurement with an absorption spectrometer to quantitate the amount of dye which had traversed the stratum corneum membrane during an experiment. Chemical enhancers suitable for use could vary over a wide range of solvents and/or cell envelope disordering compounds as noted above. The specific enhancer utilized was: ethanol/glycerol/water/glycerolmonooleate/methyl laurate in 50/30/15/2.5/2.5 volume ratios. The system for producing and controlling the sonic energy included a programmable 0-30 MHz arbitrary waveform generator (Stanford Reserach Systems Model DS345), a 20 watt 0-30 MHz amplifier, and two unfocused ultrasound immersion transducers having peak resonances at 15 and 25 MHz, respectively. […]

subjects left forearm = assay: Lidocaine delivery through porated stratum corneum with ultrasound; numbness assessed by rubbing a 30 gauge wire across the test site; type: in vivo, human
Text: A drawing of an illustrative delivery apparatus 300 is shown in FIG. 50, wherein the apparatus comprises a housing 304 enclosing a reservoir 308 for holding a drug-containing solution 312. The top portion of the housing comprises an ultrasonic transducer 316 for providing sonic energy to aid in transporting the drug-containing solution through micropores; 320 in the stratum corneum 324. A port 328 in the ultrasonic transducer permits application of pressure thereto for further aiding in transporting the drug-containing solution through the micropores in the stratum corneum. The delivery apparatus is applied to a selected area of an individual's skin such that it is positioned over at least one, and preferably a plurality, of micropores. An adhesive layer 332 attached to a lower portion of the housing permits the apparatus to adhere to the skin such that the drugcontaining solution in the reservoir is in liquid communication with the micropores.
Five subjects were tested for the effectiveness of drug delivery using poration together with ultrasound. The experiment used two sites on the subjects left forearm about three inches apart, equally spaced between the thumb and upper arm. The site near the thumb will be referred to as site 1 the site furthest from the thumb will be referred to as site 2. […] Site 2 was porated with 24 holes spaced 0.8 millimeters apart in a grid contained within a 1 cm diameter circle. The micropores in Site 2 were generated according to the procedure of Example 6. […] Ultrasound applications were made with a custom manufactured Zevex ultrasonic transducer assembly set in burst mode with 0.4 Volts peak to peak input with 1000 count bursts occurring at 10 Hz with a 65.4 kHz fundamental frequency, i.e., a pulse modulated signal with the transducer energized for 15 millisecond bursts, and then turned off for the next 85 milliseconds. The measured output of the amplifier to the transducer was 0.090 watts RMS.
Experiments were executed on both sites, Site 1 for 10 to 12 minute duration and Site 2 for two 5 minute duration intervals applied serially to the same site. Both sites were assessed for numbness using a scale of 10 to 0, where 10 indicated no numbness and 0 indicated complete numbness as reported by the test subjects.

[2] = Site 2 porated plus ultrasound, after the second application

## CN(C)c1ccc2nc3ccc(=[N+](C)C)cc-3sc2c1 [methylene blue]
[1]
  visual evidence of dye flux through the stratum corneum: No visual evidence of dye flux
  visually detectable permeation of the stratum corneum: no visually detectable permeation
[1]; human, 5 min
  level of dye solution in 2 ml of receiver medium (no visual indication of dye flux): < 0.0015 % (v/v)

## CCN(CC)CC(=O)Nc1c(C)cccc1C [lidocaine]
Subjects left forearm; Site 1 control, no micro-poration or sonic energy, at approximately 20 minutes
  numbness, scale of 10 to 0 (10 no numbness, 0 complete numbness): 3
Subjects left forearm; Site 1 control: lidocaine and enhancer solution, no micro-poration or sonic energy, at 10 to 12 minutes, 5 subjects
  numbness, scale of 10 to 0 (10 no numbness, 0 complete numbness): 7 to 10
Subjects left forearm; Site 2 porated plus ultrasound, after the second 5 minute application
  diameter of totally numb circle: about 12 cm
Subjects left forearm; [2]
  diameter of numb oval pattern parallel to the forearm: 2 to 6 cm
  diameter of numb oval pattern perpendicular to the forearm: 2 to 2.5 cm
Subjects left forearm; Site 2 porated with 24 holes plus low level ultrasound, in the 1 cm circle containing the porations, first 5 minute application
  numbness, scale of 10 to 0 (10 no numbness, 0 complete numbness): 0 to 1

Reference: US20020169394A1, “Integrated tissue poration, fluid harvesting and analysis device, and method therefor” (priority 1993, published 2002)
